# Laboratory results as given in patent publication US7989451B2, “Tricyclic 1,2,4-triazine oxides and compositions for therapeutic use in cancer treatments” (Auckland Uniservices Limited, priority 2005, dated 2011).
row,melting point,SMILES
1,153 to 155 °C,"CCNc1n[n+]([O-])c2cc3c(cc2[n+]1[O-])CC(CO)C3 (centres unmarked) [Compound 127, [3-(Ethylamino)-1,4-dioxido-7,8-dihydro-6H-indeno[5,6-e][1,2,4]triazin-7-yl]methanol]"
2,122 to 123 °C,"CCc1nc2cc3c(cc2[n+]([O-])n1)CC(CO)C3 (centres unmarked) [Compound 142, (3-Ethyl-1-oxido-7,8-dihydro-6H-indeno[5,6-e][1,2,4]triazin-7-yl)methanol]"
3,111 to 112 °C,"CCc1nc2cc3c(cc2[n+]([O-])n1)CC(CN1CCOCC1)C3 (centres unmarked) [Compound 143, 3-Ethyl-7-(4-morpholinylmethyl)-7,8-dihydro-6H-indeno[5,6-e][1,2,4]triazine 1-Oxide]"
4,230 to 235 °C,"Nc1nc2cc3c(cc2[n+]([O-])n1)CC(CCO)C3 (centres unmarked) [Compound 157, 2-(3-Amino-1-oxido-7,8-dihydro-6H-indeno[5,6-e][1,2,4]triazin-7-yl)ethanol]"
5,96 to 99 °C,"[O-][n+]1nc(I)nc2cc3c(cc21)CC(CCO)C3 (centres unmarked) [Compound 158, 2-(3-Iodo-1-oxido-7,8-dihydro-6H-indeno[5,6-e][1,2,4]triazin-7-yl)ethanol]"
6,80 to 82 °C,"[O-][n+]1nc(I)nc2cc3c(cc21)CC(CCOC1CCCCO1)C3 (centres unmarked) [Compound 159, 3-Iodo-7-(2-(tetrahydro-2H-pyran-2-yloxy)ethyl)-7,8-dihydro-6H-indeno[5,6-e][1,2,4]triazine 1-Oxide]"
7,96 to 99 °C,"CCc1nc2cc3c(cc2[n+]([O-])n1)CC(CCO)C3 (centres unmarked) [Compound 161, 2-(3-Ethyl-1-oxido-7,8-dihydro-6H-indeno[5,6-e][1,2,4]triazin-7-yl)ethanol]"
8,115 to 116 °C,"[O-][n+]1nc(NCCCN2CCOCC2)nc2cc3c(cc21)CCCC3 [Compound 179, N-[3-(4-Morpholinyl)propyl]-6,7,8,9-tetrahydronaphtho[2,3-e][1,2,4]triazin-3-amine 1-Oxide]"
9,261 to 265 °C,"Nc1nc2cc3c(cc2[n+]([O-])n1)CCCCC3 [Compound 186, 7,8,9,10-Tetrahydro-6H-cyclohepta[g][1,2,4]benzotriazin-3-amine 1-Oxide]"
10,142 to 144 °C,"[O-][n+]1nc(NCCCN2CCOCC2)nc2cc3c(cc21)OCC3 [Compound 199, N-[3-(4-Morpholinyl)propyl]-6,7-dihydrofuro[3,2-g][1,2,4]benzotriazin-3-amine 1-Oxide]"
11,152 to 154 °C,"[O-][n+]1nc(NCCCN2CCOCC2)nc2cc3c(cc21)CCO3 [Compound 211, N-[3-(4-Morpholinyl)propyl]-7,8-dihydrofuro[2,3-g][1,2,4]benzotriazin-3-amine 1-Oxide]"
12,140 to 142 °C,"O=CCCc1nc2cc3c(cc2[n+]([O-])n1)CCO3 [Compound 214, 3-(1-Oxido-7,8-dihydrofuro[2,3-g][1,2,4]benzotriazin-3-yl)propanal]"
13,96 to 99 °C,"[O-][n+]1nc(CCCN2CCOCC2)nc2cc3c(cc21)CCO3 [Compound 215, 3-[3-(4-Morpholinyl)propyl]-7,8-dihydrofuro[2,3-g][1,2,4]benzotriazine 1-Oxide]"
14,151 to 152 °C,"[O-][n+]1nc(NCCCN2CCOCC2)nc2cc3c(cc21)OCCC3 [Compound 243, N-[3-(4-Morpholinyl)propyl]-7,8-dihydro-6H-chromeno[6,7-e][1,2,4]triazin-3-amine 1-Oxide]"
15,218 °C,"CCN1Cc2cc3nc(N)n[n+]([O-])c3cc2C1 [Compound 249, 7-Ethyl-7,8-dihydro-6H-[1,2,4]triazino[5,6-f]isoindol-3-amine 1-Oxide]"
16,170 to 175 °C,"CN1CCc2cc3c(cc2C1)nc(N)n[n+]3[O-] [Compound 256, 7-Methyl-6,7,8,9-tetrahydro[1,2,4]triazino[6,5-g]isoquinolin-3-amine 1-Oxide]"
17,179 °C (dec.),"CN1CCc2cc3c(cc2C1)nc(Cl)n[n+]3[O-] [Compound 257, 3-Chloro-7-methyl-6,7,8,9-tetrahydro[1,2,4]triazino[6,5-g]isoquinoline 1-Oxide]"
18,193 to 196 °C,"CCNc1nc2cc3c(cc2[n+]([O-])n1)CCN(C)C3 [Compound 258, N-Ethyl-7-methyl-6,7,8,9-tetrahydro[1,2,4]triazino[6,5-g]isoquinolin-3-amine 1-Oxide]"
19,129 to 131 °C,"CCc1nc2cc3c(cc2[n+]([O-])n1)CCN(C)C3 [Compound 260, 3-Ethyl-7-methyl-6,7,8,9-tetrahydro[1,2,4]triazino[6,5-g]isoquinoline 1-Oxide]"

# The next lines start with the compound.
row,SMILES,melting point
1,"Nc1nc2ccc3c(c2[n+]([O-])n1)CCCC3 [Compound 170, 7,8,9,10-Tetrahydronaphtho[2,1-e][1,2,4]triazin-3-amine 1-Oxide]",271 °C (dec.)
2,"CN(C)CCNc1nc2ccc3c(c2[n+]([O-])n1)CCCC3 [Compound 172, N^1,N^1-Dimethyl-N^2-(1-oxido-7,8,9,10-tetrahydronaphtho[2,1-e][1,2,4]triazin-3-yl)-1,2-ethanediamine]",151 to 153 °C
3,"Nc1nc2cc3c(cc2[n+]([O-])n1)CCCC3 [Compound 175, 6,7,8,9-Tetrahydronaphtho[2,3-e][1,2,4]triazin-3-amine 1-Oxide]",270 to 274 °C
4,"CN(C)CCNc1nc2cc3c(cc2[n+]([O-])n1)CCCC3 [Compound 177, N^1-(1-Oxido-6,7,8,9-tetrahydronaphtho[2,3-e][1,2,4]triazin-3-yl)-N^2,N^2-dimethyl-1,2-ethanediamine]",149 to 151 °C
5,"CN(C)CCNc1n[n+]([O-])c2cc3c(cc2[n+]1[O-])CCCC3 [Compound 178, N^1-(1,4-Dioxido-6,7,8,9-tetrahydronaphtho[2,3-e][1,2,4]triazin-3-yl)-N^2,N^2-dimethyl-1,2-ethanediamine]",148 to 151 °C
6,"CN(C)CCNc1nc2cc3c(cc2[n+]([O-])n1)CCCCC3 [Compound 188, N^1,N^1-Dimethyl-N^2-(1-oxido-7,8,9,10-tetrahydro-6H-cyclohepta[g][1,2,4]benzotriazin-3-yl)-1,2-ethanediamine]",149 to 152 °C
7,"Nc1nc2cc3c(cc2[n+]([O-])n1)OCC3 [Compound 195, 6,7-Dihydrofuro[3,2-g][1,2,4]benzotriazin-3-amine 1-Oxide]",241 to 246 °C
8,"CN(C)CCNc1nc2cc3c(cc2[n+]([O-])n1)OCC3 [Compound 197, N^1,N^1-Dimethyl-N^2-(1-oxido-6,7-dihydrofuro[3,2-g][1,2,4]benzotriazin-3-yl)-1,2-ethanediamine]",153 to 157 °C
9,"Nc1nc2cc3c(cc2[n+]([O-])n1)CCO3 [Compound 204, 7,8-Dihydrofuro[2,3-g][1,2,4]benzotriazin-3-amine 1-Oxide]",293 to 296 °C
10,"[O-][n+]1nc(Cl)nc2cc3c(cc21)CCO3 [Compound 206, 3-Chloro-7,8-dihydrofuro[2,3-g][1,2,4]benzotriazine 1-Oxide]",203 to 205 °C
11,"CN(C)CCNc1nc2cc3c(cc2[n+]([O-])n1)CCO3 [Compound 207, N^1,N^1-Dimethyl-N^2-(1-oxido-7,8-dihydrofuro[2,3-g][1,2,4]benzotriazin-3-yl)-1,2-ethanediamine]",163 to 165 °C
12,"CCN(CC)CCNc1nc2cc3c(cc2[n+]([O-])n1)CCO3 [Compound 209, N^1,N^1-Diethyl-N^2-(1-oxido-7,8-dihydrofuro[2,3-g][1,2,4]benzotriazin-3-yl)-1,2-ethanediamine]",150 to 151 °C
13,"[O-][n+]1nc(I)nc2cc3c(cc21)CCO3 [Compound 213, 3-Iodo-7,8-dihydrobenzofuro[6,5-e][1,2,4]triazine 1-Oxide]",192 to 194 °C
14,"CN(C)CCNc1nc2cc3c(cc2[n+]([O-])n1)OCO3 [Compound 223, N^1,N^1-Dimethyl-N^2-(1-oxido[1,3]dioxolo[4,5-g][1,2,4]benzotriazin-3-yl)-1,2-ethanediamine]",192 to 194 °C
15,"Nc1nc2ccc3c(c2[n+]([O-])n1)CCCO3 [Compound 234, 9,10-Dihydro-8H-chromeno[6,5-e][1,2,4]triazin-3-amine 1-Oxide]",275 to 279 °C (dec.)
16,"CN(C)CCNc1nc2ccc3c(c2[n+]([O-])n1)CCCO3 [Compound 236, N^1,N^1-Dimethyl-N^2-(1-oxido-9,10-dihydro-8H-chromeno[6,5-e][1,2,4]triazin-3-yl)-1,2-ethanediamine]",119 to 120 °C
17,"Nc1nc2cc3c(cc2[n+]([O-])n1)OCCC3 [Compound 239, 7,8-Dihydro-6H-chromeno[6,7-e][1,2,4]triazin-3-amine 1-Oxide]",280 to 283 °C
18,"CN(C)CCNc1nc2cc3c(cc2[n+]([O-])n1)OCCC3 [Compound 241, N^1,N^1-Dimethyl-N^2-(1-oxido-7,8-dihydro-6H-chromeno[6,7-e][1,2,4]triazin-3-yl)-1,2-ethanediamine]",150 to 152 °C
19,"CN1CCc2ccc3nc(N)n[n+]([O-])c3c2C1 [Compound 262, 9-Methyl-7,8,9,10-tetrahydro[1,2,4]triazino[5,6-h]isoquinolin-3-amine 1-Oxide]",226 to 229 °C
20,"CN1CCc2ccc3nc(Cl)n[n+]([O-])c3c2C1 [Compound 263, 3-Chloro-9-methyl-7,8,9,10-tetrahydro[1,2,4]triazino[5,6-h]isoquinoline 1 Oxide]",200 to 205 °C
21,"CCc1nc2ccc3c(c2[n+]([O-])n1)CN(C)CC3 [Compound 264, 3-Ethyl-9-methyl-7,8,9,10-tetrahydro[1,2,4]triazino[5,6-h]isoquinoline 1 Oxide]",99 to 102 °C
22,"CCc1n[n+]([O-])c2c3c(ccc2[n+]1[O-])CCN(C)C3 [Compound 265, 3-Ethyl-9-methyl-7,8,9,10-tetrahydro[1,2,4]triazino[5,6-h]isoquinoline 1,4-Dioxide]",117 to 121 °C
